Reference: PMC3689833, “Neurochemical Changes in the Mouse Hippocampus Underlying the Antidepressant Effect of Genetic Deletion of P2X7 Receptors” (PLoS ONE, 2013)

Key:
[1] = test system: P2rx7+/+ and P2rx7−/− mice; assay: Sucrose preference test (SPT), LPS-induced anhedonia; format: in vivo, mouse; conditions: P2rx7+/+ mice, subacute 4-day 50 mg/kg i.p., LPS 0.2 mg/kg i.p.
Procedure: The experiments were performed using the two-bottle sucrose preference paradigm. The decreased preference for sucrose vs. water in this test has been proposed to reflect impaired sensitivity towards reward and to model anhedonia. Mice were offered a choice of 2% sucrose solution or water during 12-hour nocturnal periods (starting at 19∶00). The bottles were weighed before and after each test session to monitor sucrose and water consumption. The relative position of the sucrose and water bottles were swapped every night to avoid place preferences. The baseline sucrose intake was measured under a habituation period of 3–4 days before administering the treatments, and the mean volume ingested over the last 3 training sessions was used as a baseline value. The sucrose consumption was measured for 4 consecutive nights after LPS (0.2 mg/kg i.p.) or saline administration and expressed as g/100 g body weight or as a percentage of the baseline (%).

acute hippocampal slices = assay: [3H]Glutamate and endogenous glutamate release from acute hippocampal slices; format: cell-based, mouse; conditions: P2rx7−/− slices, ATP 10 mM, antagonist 100 nM 15 min before ATP
Procedure: The [^3H]Glu release experiments were conducted using the method described in our previous papers. Briefly, the mice were anaesthetized under light CO2 inhalation, and subsequently decapitated. The hippocampus was dissected from each mouse in ice-cold Krebs solution saturated with 95% O2 and 5% CO2, sectioned (400-µm-thick slices) using a McIlwain tissue chopper and incubated in 1 ml of modified Krebs solution (113 mM NaCl, 4.7 mM KCl, 2.5 mM CaCl2, 1.2 mM KH2PO4, 1.2 mM MgSO4, 25.0 mM NaHCO3, and 11.5 mM glucose), pH 7.4, in the presence of 5 µCi/ml [^3H]glutamic acid ([^3H]Glu, 9.8×10^−8 M, specific activity 51 Ci/mmol; Perkin Elmer) for 45 min. The medium was bubbled with 95% O2 and 5% CO2 and maintained at 32°C. After loading, the slices were continuously superfused with 95% O2 and 5% CO2-saturated modified Krebs solution (flow rate: 0.7 ml/min).
Subsequently, the perfused samples were collected over a 3-min period and measured for tritium content. At 6 min after the start of the collection, the slices were subjected to a 6-min perfusion of the agonist (ATP) at various concentrations (1, 3, 6 and 10 mM) and then changed to normal Krebs solution until the end of the collection period. In some experiments, the P2X1 receptor antagonist, NF449 (100 nM), or the selective P2rx7 antagonist Brilliant blue G (100 nM) was applied to the perfusion solution at 15 min before the beginning of the ATP perfusion.
The radioactivity released from the preparations was measured using a Packard 1900 Tricarb liquid scintillation spectrometer, using Ultima Gold Scintillation cocktail. The release of tritium was expressed as a percentage of the amount of radioactivity in the tissue at the sample collection time (fractional release). The tritium uptake in the tissue was determined as the sum of release+the tissue content after the experiment and expressed in Bq/g. For the evaluation of the basal tritium outflow the fractional release measured in four consecutive 3 min samples under drug free conditions were taken into account. The ATP-induced [^3H]Glu efflux calculated as the net release in response to the respective stimulus by subtracting the release before the stimulation from the values measured after stimulation. Selected samples collected under resting conditions and during the peak of the ATP-evoked response were subjected to further HPLC analyses.
The separation of pre-column dansylated amino acids was performed using a gradient elution-working mode at ambient temperature. The mobile phase A consisted of 5/95 (v/v) 78/22 acetonitrile/methanol in 15 mM ammonium formate buffer, and the mobile phase B was composed of 90/10 (v/v 78/22) acetonitrile/methanol in ammonium formate buffer, pH 3.7. The mobile phase B increased linearly (at 0.11 min to 50% 17 min to 72% and 26 min to 100%, followed by a final run to 54 min), the flow rate was 0.7 ml/min. The analytical and the trap column were equilibrated for 10 min, and enrichment and clean-up procedures were performed. The dansylated derivatives were detected using an absorbance detector (Agilent 1100) at a 319 nm wavelength. The retention time of the dansylated Glu was 11.4 min. Pre-column derivatization was performed by mixing 50 µl of dansyl chloride prepared by dissolving 5 mg 5-(dimethylamino)naphthalene-1-sulfonyl chloride in acetonitrile daily and adding 50 µl of 2 M sodium carbonate, which contained norvaline (20 µM) as an internal standard in 25 µl of sample. After a 10-min reaction time at 60°C, the mixture was acidified using 25 µl of 6 M formic acid and injected onto the “trap-column”.

CCOc1ccc(Nc2ccc(/C(=C3C=C/C(=[N+](/CC)Cc4cccc(S(=O)(=O)[O-])c4)C=C/3C)c3ccc(N(CC)Cc4cccc(S(=O)(=O)O)c4)cc3C)cc2)cc1 [BBG, Brilliant blue G]
sucrose consumption one day after LPS injection [1]: did not change | sucrose consumption over subsequent days after LPS [1]: significantly increased | residual ATP-evoked [3H]Glu efflux in presence of antagonist (acute hippocampal slices): 0.56±0.25%
